Laboratory results reported in ChEMBL document CHEMBL2417389, “Synthesis and optimization of novel (3S,5R)-5-(2,2-dimethyl-5-oxo-4-phenylpiperazin-1-yl)piperidine-3-carboxamides as orally active renin inhibitors” (Bioorg Med Chem, 2013).
Substitutions are numbered along the chain they refer to. Calls of active or inactive are those of the source. No cut-off for these calls is given here.

Assays:
Renin [1] = target: T1, Renin (Homo sapiens, UniProt P00797); assay: Inhibition of trypsin-activated human recombinant renin using (Arg-Glu(EDANS)-Ile-His-Pro-Phe-His-Leu-Val-Ile-His-Thr-Lys(DABCYL)-Arg) as substrate incubated for 10 mins prior to substrate addition measured after 90 mins by fluorescence assay
T1 sequence (P00797 whole entry): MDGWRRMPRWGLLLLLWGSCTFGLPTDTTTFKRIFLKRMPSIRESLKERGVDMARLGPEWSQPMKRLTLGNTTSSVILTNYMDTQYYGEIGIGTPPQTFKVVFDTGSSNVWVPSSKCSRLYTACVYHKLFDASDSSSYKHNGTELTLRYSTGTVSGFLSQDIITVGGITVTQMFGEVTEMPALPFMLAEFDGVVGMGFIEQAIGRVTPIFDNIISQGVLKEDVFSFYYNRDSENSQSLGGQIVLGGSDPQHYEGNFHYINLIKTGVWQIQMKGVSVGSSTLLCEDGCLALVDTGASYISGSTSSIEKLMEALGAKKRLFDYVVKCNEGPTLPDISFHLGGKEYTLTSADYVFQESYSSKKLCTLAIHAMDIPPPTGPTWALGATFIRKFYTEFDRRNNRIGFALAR

[2] = target: T2, Renin (Macaca fascicularis) (UniProt Q6DLS0); assay: Ratio of compound IC50 to Aliskiren hemifumarate IC50 for cynomolgus monkey plasma renin
T2 sequence (whole entry): T1 sequence (P00797 whole entry) with T68A, I214L, S235A

Renin [3] = target: T3, Renin (Macaca fascicularis, UniProt Q6DLS0); assay: Inhibition of cynomolgus monkey plasma renin assessed as angiotensin 1 level after 60 mins by competitive radioimmunoassay
T3 sequence (Q6DLS0 whole entry): T1 sequence (P00797 whole entry) with T68A, I214L, S235A

[4] = AUC (0 to 24 hrs) in cynomolgus monkey at 3 mg/kg, po; assay type: ADME, organism-based, Macaca fascicularis; set-up: time < 24 hr, dose 3 mg/kg, route oral; settings: plasma
[5] = AUC (0 to 24 hrs) in Sprague-Dawley rat at 10 mg/kg, po; assay type: ADME, organism-based; set-up: time < 24 hr, dose 10 mg/kg, route oral; settings: plasma
CYP2D6 = CYP2D6 (Homo sapiens, UniProt P10635); assay: Inhibition of CYP2D6 (unknown origin) at 10 uM; assay type: ADME
hERG (KCNH2) = hERG (KCNH2) (Homo sapiens, UniProt Q12809); assay: Inhibition of human ERG channel at 30 uM by patch clamp technique
Rattus norvegicus [6] = assay: Antihypertensive activity in double transgenic rat assessed as reduction in mean arterial pressure at 30 mg/kg, po measured for 48 hrs post dose; assay type: functional, organism-based; set-up: dose 30 mg/kg; settings: Artery
[7] = AUC (0 to 24 hrs) in cynomolgus monkey at 10 mg/kg, po; assay type: ADME, organism-based, Macaca fascicularis; set-up: time < 24 hr, dose 10 mg/kg, route oral; settings: plasma
Cynomolgus monkey [8] = assay: Antihypertensive activity in cynomolgus monkey assessed as reduction in mean arterial pressure at 10 mg/kg, po measured for 24 hrs post dose; assay type: functional, organism-based; set-up: dose 10 mg/kg; settings: Macaca fascicularis, Artery
CYP3A4 = CYP3A4 (Homo sapiens, UniProt P08684); assay: Inhibition of CYP3A4 (unknown origin) at 10 uM; assay type: ADME
[9] = Half life in Sprague-Dawley rat at 30 mg/kg, po and 1 mg/kg, iv; assay type: ADME, organism-based; settings: in vivo
[10] = Oral bioavailability in Sprague-Dawley rat at 30 mg/kg; assay type: ADME, organism-based; settings: in vivo
[11] = Plasma protein binding in monkey by ultracentrifugation method; assay type: ADME, cell-free, Macaca mulatta; settings: rhesus monkey, read-out: PPB (converted)
[12] = Volume of distribution at steady state in Sprague-Dawley rat at 30 mg/kg, po and 1 mg/kg, iv; assay type: ADME, organism-based; settings: in vivo, read-out: Vdss
[13] = Oral bioavailability in cynomolgus monkey at 10 mg/kg; assay type: ADME, organism-based, Macaca fascicularis; settings: in vivo
[14] = Half life in cynomolgus monkey at 10 mg/kg, po and 1 mg/kg, iv; assay type: ADME, organism-based, Macaca fascicularis; settings: in vivo
Cavia porcellus [15] = organism: Cavia porcellus; assay: Cardiotoxicity in guinea pig assessed as action potential duration at 90% repolarization of right ventricular papillary muscle at 30 uM by glass microelectrode method relative to baseline; assay type: toxicity, Muscle tissue
Cynomolgus monkey [16] = assay: Antihypertensive activity in po dosed cynomolgus monkey assessed as reduction in mean arterial pressure administered 3 days post furosemide-challenge measured after 24 hrs; assay type: functional, organism-based; settings: Macaca fascicularis; Artery
[17] = Clearance in cynomolgus monkey at 10 mg/kg, and 1 mg/kg, iv; assay type: ADME, organism-based, Macaca fascicularis; settings: in vivo
Renin (Homo sapiens) = target: T4, Renin (Homo sapiens) (UniProt P00797); assay: Ratio of compound IC50 to Aliskiren hemifumarate IC50 for human plasma renin
T4 sequence (whole entry): T1 sequence (P00797 whole entry)

Salmonella typhimurium [18] = assay: Genotoxicity in Salmonella typhimurium TA100 by Ames assay; assay type: toxicity, organism-based; settings: salmonella enterica subsp. enterica serovar typhimurium
[19] = Clearance in Sprague-Dawley rat at 30 mg/kg, po and 1 mg/kg, iv; assay type: ADME, organism-based; settings: in vivo
[20] = Plasma protein binding in human by ultracentrifugation method; assay type: ADME, cell-free; settings: read-out: PPB (converted)
Renin [21] = target: T1, Renin; assay: Inhibition of human plasma renin by competitive radioimmunoassay
[22] = Volume of distribution at steady state in cynomolgus monkey at 10 mg/kg, po and 1 mg/kg, iv; assay type: ADME, organism-based, Macaca fascicularis; settings: in vivo, read-out: Vdss
Rattus norvegicus [23] = assay: Antihypertensive activity in double transgenic rat assessed as reduction in mean arterial pressure at 30 mg/kg, po after 24 hrs; assay type: functional, organism-based; set-up: dose 30 mg/kg; settings: Artery
[24] = Cmax in Sprague-Dawley rat at 30 mg/kg, po and 1 mg/kg, iv; assay type: ADME, organism-based; settings: in vivo
Salmonella typhimurium [25] = assay: Genotoxicity in Salmonella typhimurium TA98 by Ames assay; assay type: toxicity, organism-based; settings: salmonella enterica subsp. enterica serovar typhimurium
[26] = Metabolic stability in rat liver microsomes assessed as compound remaining after 30 mins; assay type: ADME, Microsome; settings: read-out: Stability
[27] = Metabolic stability in human liver microsomes assessed as compound remaining after 30 mins; assay type: ADME, Microsome; settings: read-out: Stability
[28] = Lipophilicity, log D of the compound at pH 7.4; assay type: physicochemical; settings: buffer
Cavia porcellus [29] = organism: Cavia porcellus; assay: Cardiotoxicity in guinea pig assessed as maximum dV/dt in right ventricular papillary muscle at 30 uM by glass microelectrode method relative to baseline; assay type: toxicity, Muscle tissue
[30] = AUC (0 to 24 hrs) in Sprague-Dawley rat at 30 mg/kg, po; assay type: ADME, organism-based; set-up: time < 24 hr, dose 30 mg/kg, route oral; settings: plasma
[31] = Plasma protein binding in rat by ultracentrifugation method; assay type: ADME, cell-free; settings: read-out: PPB (converted)
[32] = Cmax in cynomolgus monkey at 10 mg/kg, po and 1 mg/kg, iv; assay type: ADME, organism-based, Macaca fascicularis; settings: in vivo
[33] = Metabolic stability in monkey liver microsomes assessed as compound remaining after 30 mins; assay type: ADME, Macaca mulatta, Microsome; settings: rhesus monkey, read-out: Stability

Chain of hERG (KCNH2) (Q12809 whole entry): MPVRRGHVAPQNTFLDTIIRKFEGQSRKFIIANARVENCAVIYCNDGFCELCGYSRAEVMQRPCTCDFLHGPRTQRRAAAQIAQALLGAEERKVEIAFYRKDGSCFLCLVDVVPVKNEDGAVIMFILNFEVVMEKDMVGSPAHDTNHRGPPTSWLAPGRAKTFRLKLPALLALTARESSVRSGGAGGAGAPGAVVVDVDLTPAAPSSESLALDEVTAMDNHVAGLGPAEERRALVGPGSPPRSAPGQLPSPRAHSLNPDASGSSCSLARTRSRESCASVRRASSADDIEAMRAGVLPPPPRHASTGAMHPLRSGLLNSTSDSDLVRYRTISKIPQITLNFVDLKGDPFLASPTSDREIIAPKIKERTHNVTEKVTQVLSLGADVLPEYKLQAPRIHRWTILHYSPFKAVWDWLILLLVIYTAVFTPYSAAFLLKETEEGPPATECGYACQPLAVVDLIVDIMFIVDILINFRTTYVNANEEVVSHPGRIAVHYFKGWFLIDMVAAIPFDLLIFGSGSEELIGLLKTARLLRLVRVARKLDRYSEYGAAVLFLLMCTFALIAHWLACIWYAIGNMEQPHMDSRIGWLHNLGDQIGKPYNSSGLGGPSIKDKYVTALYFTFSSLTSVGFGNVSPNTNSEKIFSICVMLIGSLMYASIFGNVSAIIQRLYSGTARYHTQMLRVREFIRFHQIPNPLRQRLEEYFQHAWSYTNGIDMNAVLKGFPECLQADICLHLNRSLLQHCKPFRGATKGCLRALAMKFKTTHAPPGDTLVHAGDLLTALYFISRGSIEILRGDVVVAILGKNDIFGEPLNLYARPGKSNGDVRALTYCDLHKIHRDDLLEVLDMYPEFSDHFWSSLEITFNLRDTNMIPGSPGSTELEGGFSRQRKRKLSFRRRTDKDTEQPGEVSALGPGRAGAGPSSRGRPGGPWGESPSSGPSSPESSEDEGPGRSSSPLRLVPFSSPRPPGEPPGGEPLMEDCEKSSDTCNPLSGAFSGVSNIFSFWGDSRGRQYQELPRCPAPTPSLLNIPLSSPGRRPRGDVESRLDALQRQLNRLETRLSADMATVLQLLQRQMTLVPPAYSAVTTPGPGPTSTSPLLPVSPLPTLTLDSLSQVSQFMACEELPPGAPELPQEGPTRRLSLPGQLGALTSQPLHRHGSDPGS
Chain of CYP2D6 (P10635 whole entry): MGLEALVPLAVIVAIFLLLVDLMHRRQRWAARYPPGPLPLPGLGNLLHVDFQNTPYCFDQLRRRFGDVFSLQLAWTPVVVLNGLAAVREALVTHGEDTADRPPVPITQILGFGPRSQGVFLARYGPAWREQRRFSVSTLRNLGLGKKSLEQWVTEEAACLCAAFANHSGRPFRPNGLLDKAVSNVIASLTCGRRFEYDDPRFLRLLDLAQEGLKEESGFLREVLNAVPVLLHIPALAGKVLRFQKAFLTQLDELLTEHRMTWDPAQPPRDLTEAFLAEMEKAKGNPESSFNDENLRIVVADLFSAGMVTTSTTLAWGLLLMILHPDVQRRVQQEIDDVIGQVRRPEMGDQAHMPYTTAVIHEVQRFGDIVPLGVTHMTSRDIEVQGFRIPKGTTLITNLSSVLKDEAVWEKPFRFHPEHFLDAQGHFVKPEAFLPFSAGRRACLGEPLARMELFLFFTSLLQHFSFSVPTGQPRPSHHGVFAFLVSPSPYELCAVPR
Chain of CYP3A4 (P08684 whole entry): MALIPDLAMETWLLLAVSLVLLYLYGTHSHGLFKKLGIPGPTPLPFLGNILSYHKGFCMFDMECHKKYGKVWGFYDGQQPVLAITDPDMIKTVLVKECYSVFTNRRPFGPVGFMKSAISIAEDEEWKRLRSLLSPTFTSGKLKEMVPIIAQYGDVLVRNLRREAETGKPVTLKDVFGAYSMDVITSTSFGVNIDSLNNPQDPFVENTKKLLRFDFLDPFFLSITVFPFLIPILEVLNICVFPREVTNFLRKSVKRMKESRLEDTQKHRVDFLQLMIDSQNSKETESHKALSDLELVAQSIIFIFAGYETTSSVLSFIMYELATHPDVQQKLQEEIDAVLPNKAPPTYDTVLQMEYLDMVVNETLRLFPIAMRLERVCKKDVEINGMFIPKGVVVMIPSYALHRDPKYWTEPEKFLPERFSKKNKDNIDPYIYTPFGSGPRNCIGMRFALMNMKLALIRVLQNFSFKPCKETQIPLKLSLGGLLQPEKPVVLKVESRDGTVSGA

## CC[C@@H](NC(=O)[C@@H]1CNC[C@H](N2CC(=O)N(c3ccccc3Cl)CC2(C)C)C1)c1ccccc1F
Renin [1]
  IC50: 3.3 nM
[2]
  Ratio IC50: 2.3
Renin [3]
  IC50: 11 nM

## CCC[C@@H](NC(=O)[C@@H]1CNC[C@H](N2CC(=O)N(c3ccccc3Cl)CC2(C)C)C1)c1ccccc1
[2]
  Ratio IC50: 2

## CCOC[C@@H](CC(C)C)NC(=O)[C@@H]1CNC[C@H](N2CC(=O)N(c3ccccc3Cl)CC2(C)C)C1.O=C(O)/C=C/C(=O)O
[2]
  Ratio IC50: 0.5
[4]
  AUC(0-t) at 24 h: 60 ng·h/mL

## CC(C)C[C@@H](NC(=O)[C@@H]1CNC[C@H](N2CC(=O)N(c3ccccc3Cl)CC2(C)C)C1)c1ccccc1
[2]
  Ratio IC50: 1

## CC[C@@H](NC(=O)[C@@H]1CNC[C@H](N2CC(=O)N(c3ccccc3Cl)CC2(C)C)C1)c1ccc(Cl)cc1
Renin [1]
  IC50: 5.2 nM
[2]
  Ratio IC50: 11
Renin [3]
  IC50: 55 nM

## CC[C@@H](NC(=O)[C@@H]1CNC[C@H](N2CC(=O)N(c3ccccc3Cl)CC2(C)C)C1)c1cccc(F)c1
Renin [1]
  IC50: 1.8 nM
[2]
  Ratio IC50: 2.8
Renin [3]
  IC50: 14 nM

## CC[C@@H](NC(=O)[C@@H]1CNC[C@H](N2CC(=O)N(c3ccccc3Cl)CC2(C)C)C1)c1ccc(F)cc1
Renin [1]
  IC50: 2.4 nM
[2]
  Ratio IC50: 3.7
Renin [3]
  IC50: 19 nM

## CC(C)C[C@@H](NC(=O)[C@@H]1CNC[C@H](N2CC(=O)N(c3ccccc3Cl)CC2(C)C)C1)c1ccccn1
Renin [1]
  IC50: 1.4 nM
[2]
  Ratio IC50: 3.6
Renin [3]
  IC50: 17 nM

## CC[C@@H](NC(=O)[C@@H]1CNC[C@H](N2CC(=O)N(c3ccccc3Cl)CC2(C)C)C1)c1ccccc1.O=C(O)/C=C/C(=O)O
[2]
  Ratio IC50: 1.8
[5]
  AUC(0-t) at 24 h: 1500 ng·h/mL
[4]
  AUC(0-t) at 24 h: 730 ng·h/mL

## CC(C)CC(CC(C)C)NC(=O)[C@@H]1CNC[C@H](N2CC(=O)N(c3ccccc3Cl)CC2(C)C)C1
[2]
  Ratio IC50: 2.8

## CC(C)C[C@@H](NC(=O)[C@@H]1CNC[C@H](N2CC(=O)N(c3ccccc3Cl)CC2(C)C)C1)c1ccc(F)cn1.O=C(O)/C=C/C(=O)O
CYP2D6
  inhibition at 10 µM: 8.3%
Renin [1]
  IC50: 1 nM
[2]
  Ratio IC50: 2.1
hERG (KCNH2)
  inhibition at 30 µM: 27%
Rattus norvegicus [6]
  AUC: -535 mmHg.hr
[7]
  AUC(0-t) at 24 h: 2580 ng·h/mL
Cynomolgus monkey [8]
  AUC: -194 mmHg.hr
CYP3A4
  inhibition at 10 µM: 22%
Renin [3]
  IC50: 9.7 nM

## CC(C)C[C@@H](NC(=O)[C@@H]1CNC[C@H](N2CC(=O)N(c3ccccc3Cl)CC2(C)C)C1)C(O)C(C)C (stereo partly drawn)
[2]
  Ratio IC50: 0.8

## Cc1ccc(F)cc1N1CC(C)(C)N([C@H]2CNC[C@@H](C(=O)N[C@H](CC(C)C)c3ccc(F)cn3)C2)CC1=O
CYP2D6
  inhibition at 10 µM: 11%
Renin [1]
  IC50: 1.3 nM
[2]
  Ratio IC50: 2.1
hERG (KCNH2)
  inhibition at 30 µM: 40%
Rattus norvegicus [6]
  AUC: -606 mmHg.hr
CYP3A4
  inhibition at 10 µM: 44%
Renin [3]
  IC50: 16 nM

## Cc1ccccc1N1CC(C)(C)N([C@H]2CNC[C@@H](C(=O)N[C@H](CC(C)C)c3ccc(F)cn3)C2)CC1=O.O=C(O)/C=C/C(=O)O
[9]
  half-life: 5.4 h
[10]
  bioavailability: 20%
[11]
  fraction unbound: 0.45
CYP2D6
  inhibition at 10 µM: 1%
Renin [1]
  IC50: 1.6 nM
[12]
  Vd: 11 L/kg
[13]
  bioavailability: 25%
[14]
  half-life: 7.9 h
Cavia porcellus [15]
  Activity: -1%
Cynomolgus monkey [16]
  Activity: Dose-dependent effect
[17]
  clearance: 9.5 mL/min/kg
[2]
  Ratio IC50: 0.9
Renin (Homo sapiens)
  Ratio IC50: 1.2
hERG (KCNH2)
  inhibition at 30 µM: 5.2%
Salmonella typhimurium [18]
  Activity: Non-toxic
[19]
  clearance: 80 mL/min/kg
[20]
  fraction unbound: 0.62
Renin [21]
  IC50: 3.6 nM
[22]
  Vd: 5.4 L/kg
Rattus norvegicus [23]
  Activity: Active
[24]
  Cmax: 204 ng/mL
Rattus norvegicus [6]
  AUC: -581 mmHg.hr
Salmonella typhimurium [25]
  Activity: Non-toxic
[26]
  remaining at 0.5 h: 89%
[27]
  remaining at 0.5 h: 100%
[28]
  logD: 2
Cavia porcellus [29]
  Activity: -11.6%
[30]
  AUC(0-t) at 24 h: 1100 ng·h/mL
[7]
  AUC(0-t) at 24 h: 3190 ng·h/mL
[31]
  fraction unbound: 0.37
[32]
  Cmax: 604 ng/mL
Cynomolgus monkey [8]
  AUC: -267 mmHg.hr
CYP3A4
  inhibition at 10 µM: 30%
Renin [3]
  IC50: 7 nM
[33]
  remaining at 0.5 h: 84%

## CC[C@@H](NC(=O)[C@@H]1CNC[C@H](N2CC(=O)N(c3ccccc3Cl)CC2(C)C)C1)c1cccc(Cl)c1
Renin [1]
  IC50: 2.3 nM
[2]
  Ratio IC50: 5
Renin [3]
  IC50: 25 nM

## CC(C)C[C@@H](NC(=O)[C@@H]1CNC[C@H](N2CC(=O)N(c3ccccc3Cl)CC2(C)C)C1)c1cncc(F)c1
Renin [1]
  IC50: 1.7 nM
[2]
  Ratio IC50: 0.8
Renin [3]
  IC50: 6.9 nM

## CC(C)C[C@@H](NC(=O)[C@@H]1CNC[C@H](N2CC(=O)N(c3ccccc3Cl)CC2(C)C)C1)c1cccnc1
[2]
  Ratio IC50: 0.9

## CC(C)C[C@@H](NC(=O)[C@@H]1CNC[C@H](N2CC(=O)N(c3ccccc3Cl)CC2(C)C)C1)c1ncco1
Renin [1]
  IC50: 1.9 nM
[2]
  Ratio IC50: 1.4
Renin [3]
  IC50: 8.3 nM

## CC(C)C[C@@H](NC(=O)[C@@H]1CNC[C@H](N2CC(=O)N(c3ccccc3Cl)CC2(C)C)C1)c1ccno1
Renin [1]
  IC50: 1.1 nM
[2]
  Ratio IC50: 0.6
Renin [3]
  IC50: 3.3 nM
